In US4100276A, “Fusidic acid derivatives” (priority 1975, dated 1978):
Values after ≈ are worked out from the molar mass of the structure shown. “Also recorded” adds a separate entry of the source. Counter-ions that a name gives are not always drawn. Like-named read-outs stand apart in the source and are kept apart here.

Columns and labels:
[1] = test system: Staph. aureus Leo CJ145; test: In vitro activity, concentration required for 50% inhibition (Table A); type: cell-based; settings: Staphylococcus aureus, LEOCJ145, read-out: Concentration required for 50% inhibition (IC50)
[2] = test system: Corynebact. acnes Leo FN; test: as above; type: cell-based, Corynebacterium acnes; settings: Cutibacterium acnes, read-out: Concentration required for 50% inhibition (IC50)
[3] = test system: Staph. aureus, Leo CC178H2 (fusidic acid resistant strain); test: as above; type: cell-based; settings: Staphylococcus aureus, read-out: Concentration required for 50% inhibition (IC50)
[4] = test system: Streptococcus sp. Leo EG2; test: as above; type: cell-based; settings: Streptococcus, read-out: Concentration required for 50% inhibition (IC50)
[5] = test system: Staphylococcus aureus Leo CC178B; test: as above; type: cell-based; settings: Staphylococcus aureus, LEOCC178B, read-out: Concentration required for 50% inhibition (IC50)
[6] = test system: Streptococcus pyogenes; test: In vitro bactericidal effect, viable counts (Example 44); type: cell-based; settings: 10 μg/ml, NIH broth, 37° C; for Viable count after 0 hr: 0 hr (inoculum)
Protocol: In vitro bactericidal effect of 3α,11α-dihydroxy-16β-phenylthiofusida-13(17),24-dien-21-oic acid compared to that of fusidic acid […]
To two tubes containing NIH broth was added: a. The sodium salt of 3α,11α-dihydroxy-16β-phenylthiofusida-13(17),24-dien-21-oic acid (10 μg/ml) […]
b. The sodium salt of fusidic acid (10 μg/ml)
The tubes were inoculated with Streptococcus pyogenes to give 9.2×10^4 organisms per ml, incubated at 37° C, and the viable counts were determined at intervals.
A third tube was treated similarly without addition of any of the antibiotics and used as a control: […]

[7] = test system: Staphylococcus aureus; test: In vitro effect of combination with dihydro-fusidic acid, viable counts (Example 46); type: cell-based; settings: tubes a, b 10 μg/ml, tube c 5 + 5 μg/ml
Protocol: In vitro-effect of the combination of dihydro-fusidic acid and 3α,11α-dihydroxy-16β-phenylthio-fusida-13(17),24-dien-21- oic acid
To three tubes containing NIH broth was added:
a. The sodium salt of dihydro-fusidic acid (10 μg/ml).
b. The sodium salt of 3α,11α-dihydroxy-16-phenylthiofusida-13(17),24-dien-21-oic acid (10 μg/ml).
c. A mixture of the sodium salts of dihydro-fusidic acid (5 μg/ml) and 3α,11α-dihydroxy-16-phenylthiofusida-13(17),24-dien-21-oic acid (5 μg/ml).
The tubes were inoculated with Staphylococcus aureus to give 5.2 × 10^5 organisms per ml, incubated at 37° C for 96 hours, and the viable counts were determined.
(§1) A fourth tube was treated similarly without addition of any of the antibiotics and used as a control: […]

[8] = test system: Bacteroides fragilis, Leo JA2; test: In vitro activity, concentration required for 50% inhibition (Table A); type: cell-based; settings: Bacteroides fragilis, LEOJA2, read-out: Concentration required for 50% inhibition (IC50)
[9] = test system: Streptococcus pyogenes Leo EC; test: as above; type: cell-based; settings: Streptococcus pyogenes, read-out: Concentration required for 50% inhibition (IC50)
[10] = test system: Staphylococcus aureus; test: In vitro effect of combination with fusidic acid, viable counts (Example 45); type: cell-based; settings: 24 hours; for Viable count: 37° C, fusidic acid 1 μg/ml (tube a), isopropylthio compound 3 μg/ml (tube b), mixture 1 + 3 μg/ml (tube c), inoculum 1.4×10^4; for Resistance of surviving organisms to the compound / development of resistance: fusidic acid 1 μg/ml, isopropylthio compound 3 μg/ml, mixture 1 + 3 μg/ml
Protocol: In vitro-effect of the combination of fusidic acid and 3α,11α-dihydroxy-16β-isopropylthio-fusida-13(17),24-dien- 21-oic acid
To 3 tubes containing NIH broth was added:
a. The sodium salt of fusidic acid (1 μg/ml).
b. The sodium salt of 3α,11α-dihydroxy-16-isopropylthiofusida-13(17),24-dien-21-oic acid (3 μg/ml).
c. A mixture of the sodium salts of fusidic acid (1 μg/ml) and 3α,11α-dihydroxy-16-isopropylthiofusida-13(17),24-dien-21-oic acid (3 μg/ml).
The tubes were inoculated with Staphylococcus aureus to give 1.4×10^4 organisms per ml, incubated at 37° C for 24 hours, and the viable counts were determined.
as §1

[11] = test system: Staph. aureus (Leo CC 178B), fusidic acid sensitive strain; test: microbe, parasite or virus in culture; type: cell-based; settings: Staphylococcus aureus, isolates from "Comp. of Ex 8 cult." (48 hours pretreatment)
[12] = test system: Staph. aureus (Leo CC 178B), fusidic acid sensitive strain; test: microbe, parasite or virus in culture; type: cell-based; settings: for IC50: Staphylococcus aureus
Protocol: Prevention of development of resistance against fusidic acid as a result of treating Staph. aureus with the sodium salt of 3α,11α-dihydroxy-16β-isopropylthiofusida-13(17),24-dien-21-oic acid
After a 48 hours pretreatment of a fusidic acid sensitive strain of Staph. aureus (Leo CC 178B) with subinhibitory concentrations of fusidic acid or the compound of Example 9. The sensitivities of the pretreated cultures and of the original strain against the two compounds were determined. The determinations were made by serial dilutions in NIH-broth, inoculum size 2.10^5 organisms/ml, and read as IC50 after 18 and 48 hours.

[13] = Absorption from the gastro-intestinal tract; settings: in vivo
[14] = test system: bacteria; test: In vitro investigations of antibacterial activity (general statements); type: cell-based
[15] = 18 h, isolates from control culture, inoculum 2.10^5 organisms/ml, NIH-broth, read-out: IC50, 18 hours
[16] = 48 h, isolates from control culture, inoculum 2.10^5 organisms/ml, NIH-broth, read-out: IC50, 48 hours
[17] = isolates from fusidic acid pretreated culture (48 hours pretreatment), read-out: IC50, 18 hours
[18] = isolates from fusidic acid pretreated culture (48 hours pretreatment), read-out: IC50, 48 hours

SMILES | IC50 [1] | IC50 [2] | IC50 [3] | IC50 [4] | IC50 [5] | Viable count after 0 hr [6] | Viable count after 1.5 hr ([6]; inoculum 9.2×10^4) | Viable count after 4 hr ([6]; inoculum 9.2×10^4) | IC50 [8] | IC50 [9] | Viable count [10] | Resistance of surviving organisms to the compound / development of resistance [10] | IC50 ([11]; read-out: IC50, 18 hours) | IC50 ([11]; read-out: IC50, 48 hours) | IC50 [12, 15] | IC50 [12, 16] | IC50 [12, 17] | IC50 [12, 18] | other results
CC(C)=CCCC(C(=O)O)C1=C2C[C@@H](O)[C@H]3[C@@]4(C)CC[C@@H](O)[C@@H](C)[C@@H]4CC[C@]3(C)[C@@]2(C)C[C@@H]1Sc1ccccc1 (stereo partly drawn) [Example 1, 3α,11α-Dihydroxy-16β -phenylthiofusida-13(17), 24-dien-21-oic acid sodium salt] | 3.2 µg/mL | 0.5 µg/mL | 1.6 µg/mL | 1.6 µg/mL | 1.6 µg/mL | 9.2 × 10^4 organisms per ml | 1.4 × 10^4 organisms per ml | 5.7 × 10^2 organisms per ml | 20 µg/mL | 0.5 µg/mL |  |  |  |  |  |  |  |  | Viable counts after 6 1/2 hours ([7]; 37° C, inoculum 5.2 × 10^5): 1.1 × 10^4 organisms per ml; Viable counts after 2 hours ([7]; 37° C, inoculum 5.2 × 10^5): 5.2 × 10^4 organisms per ml; Viable counts after 24 hours ([7]; 37° C, inoculum 5.2 × 10^5): 3.1 × 10^6 organisms per ml; Resistance of surviving organisms to the compound / development of resistance ([7]; 96 hours): resistant to 3α,11α-dihydroxy-16β-phenylthio-fusida-13(17),24-dien-21- oic acid
CC(C)=CCCC(C(=O)O)C1=C2C[C@@H](O)[C@H]3[C@@]4(C)CC[C@@H](O)[C@@H](C)[C@@H]4CC[C@]3(C)[C@@]2(C)C[C@@H]1SC(C)C (stereo partly drawn) [Example 9, 3α,11α-dihydroxy-16β-isopropylthiofusida-13(17), 24-dien-21-oic acid sodium salt] |  |  |  |  |  |  |  |  |  |  | 1.5 × 10^6 organisms per ml | resistant to 3α,11α-dihydroxy-16β-isopropylthio-fusida-13(17),24-dien- 21-oic acid | 5 µg/mL | 16 µg/mL | 2 µg/mL | 5 µg/mL | 1.6 µg/mL | 5 µg/mL | Emergence of resistance against fusidic acid / change of sensitivity after pretreatment ([12]; 48 hours pretreatment with subinhibitory concentrations, sodium salt): Only a slight decrease of the sensitivity; also recorded: totally prohibited the emergence of resistance against fusidic acid
CC(=O)O[C@H]1C[C@@]2(C)[C@@H](C[C@@H](O)[C@H]3[C@@]4(C)CC[C@@H](O)[C@@H](C)[C@@H]4CC[C@@]32C)/C1=C(\CCC=C(C)C)C(=O)O [Fusidic acid] | 16 µg/mL (≈ 31 µM) | 0.2 µg/mL (≈ 0.387 µM) | 32 µg/mL (≈ 61.9 µM) | 1.6 µg/mL (≈ 3.1 µM) | 0.025 µg/mL (≈ 0.0484 µM) |  |  |  | 1.6 µg/mL (≈ 3.1 µM) | 0.63 µg/mL (≈ 1.22 µM) |  | resistant to fusidic acid | 0.016 µg/mL (≈ 0.031 µM) | 0.02 µg/mL (≈ 0.0387 µM) | 0.016 µg/mL (≈ 0.031 µM) | 1 µg/mL (≈ 1.94 µM) | 7.9 µg/mL (≈ 15.3 µM) | 50 µg/mL (≈ 96.8 µM) | Absorption from the gastro-intestinal tract (in words) [13]: absorbed efficiently from the gastro-intestinal tract; Antibacterial effect, bactericidal/bacteriostatic (in words) [14]: solely bacteriostatic
CC(=O)O[C@H]1C[C@@]2(C)[C@@H](C[C@@H](O)[C@H]3[C@@]4(C)CC[C@@H](O)[C@@H](C)[C@@H]4CC[C@@]32C)/C1=C(\CCC=C(C)C)C(=O)O [sodium salt of fusidic acid] |  |  |  |  |  | 9.2 × 10^4 organisms per ml | 1.2 × 10^5 organisms per ml | 1.5 × 10^5 organisms per ml |  |  | 1.8 × 10^8 organisms per ml |  |  |  |  |  |  |  | Viable count after 7 hr ([6]; inoculum 9.2×10^4): 1.3 × 10^5 organisms per ml
